Experimental data: US11963936B2, “Method of manufacturing stable emulsions and compositions containing the same” (UNIVERSITY OF FLORIDA RESEARCH FOUNDATION, INC., priority 2013, dated 2024)

What was measured:
[1] = Oil-water partitioning of propofol in equilibrated bulk excipient oil/water mixtures; assay type: physicochemical; conditions: for Cfree: propofol in aqueous phase, 1 wt % drug
Procedure: Oil-water partition coefficients were calculated by equilibrating a mixture of propofol, water, and oil with mass fractions fdrug, faq, and foil, respectively. The drug loading was kept constant at 1 wt %, while oil loadings were chosen to be 5 or 15 wt %. Additional experiments were performed at 10 wt % excipient oil loading for ethyl butyrate and soybean oil because of the major focus on these oils in this work. The water phase was separated and assayed for propofol concentration (cf), and the partition coefficient was obtained from a mass balance, i.e., Mdrug=Vaqcf+KVoilcf (2) where K is the oil-water partition coefficient, Mdrug, Vaq and Voil are the […] and volumes of water and oil, respectively in the system. The mass balance yields the following equation for K:
[formula] where ρaq and ρoil are the densities of water and oil, respectively. Table 2 lists the molecular weight and densities of various oils considered, along with measured aqueous phase drug concentrations and calculated logarithmic oil-water partition coefficients.

[2] = Creaming / visual shelf stability of emulsions (serum height); assay type: physicochemical; conditions: 10 wt % oil; for ability of the oil to yield stable emulsions: 1 wt % drug; for time to begin creaming: emulsions of 1 wt % propofol, 1 wt % Pluronic F68
Procedure: About 10 mL of each emulsion was placed in a 20 mL vial and left undisturbed on a lab bench to explore each emulsion's stability to creaming. Creaming is an instability mechanism where lower density oil droplets rise to the top of the system forming a cream layer with a more clear serum layer below. The emulsions were photographed periodically with a digital camera (Panasonic DMC FH25), and the photographs were analyzed using image processing software (ImageJ) to quantify the degree of creaming. The height of each emulsion phase was measured in number of pixels, and the percentage serum was calculated from the serum height divided by the total emulsion height. The time at which creaming was first observed was used as a measure of each emulsion's stability, and the time at which the emulsion had completely creamed was noted if applicable. A creaming time longer than two years is desired to be considered a commercially viable pharmaceutical emulsion.
Preliminary screening of emulsion stability was conducted by leaving emulsions undisturbed on a shelf and making visual observations at various times. The initial images of the two formulations for each of the five excipient oils are included in the top row of FIG. 3.
Images of the emulsions were digitally measured to determine the serum height as a function of time for all the emulsion systems (FIG. 3). A stable system should not separate into cream and serum phases, so the time at which serum is first observed is considered to be an approximate indicator of the degree of stability.

[3] = Propofol partitioning in binary mixtures of excipient oils
Procedure: Experiments were performed to measure the drug partitioning of binary mixtures of excipient oils. 1 wt % drug loading and 10 wt % total excipient oil loading were maintained as the experimental basis of all the binary systems formed to compare with Diprivan. The relative fractions of excipient oil were varied between 100 wt % ethyl butyrate and 100 wt % soybean oil. […] These experiments were repeated by replacing soybean oil with olive oil.

[4] = cited from earlier work
[5] = oil-water partition coefficient of propofol, 5% excipient oil
[6] = oil-water partition coefficient of propofol, 15% excipient oil

| Log10K [1, 5] | Log10K [1, 6] | Cfree ([1]; 5% excipient oil) | Cfree ([1]; 15% excipient oil) | ability of the oil to yield stable emulsions [2] | time to begin creaming [2] | SMILES | log(K) ([1]; oil-water partition coefficient of propofol) | Log10K ([1]; oil-water partition coefficient of propofol, 10% excipient oil) | Cfree ([1]; 10% excipient oil) | partition coefficient of propofol compared to soybean oil [3] | pKa [4] |
| --- | --- | --- | --- | --- | --- | --- | --- | --- | --- | --- | --- |
| 3.92 | 4.08 | 16.9 mg/L | 4.39 mg/L | did not yield stable emulsions | several days or weeks | CCCCCCCCCCCCCC(=O)OC(C)C [Isopropyl myristate (IM), Isopropyl myristate] |  |  |  |  |  |
| 3.71 | 4.01 | 28.1 mg/L | 5.17 mg/L | did not yield stable emulsions | several days or weeks | CCCCCCCCCCCCCCCC(=O)OC(C)C [Isopropyl palmitate (IP), Isopropyl palmitate] |  |  |  |  |  |
| 3.65 | 3.76 | 33.5 mg/L | 10.0 mg/L | did not yield stable emulsions |  | CCCCCCCC(=O)O [Octanoic acid (OA), Octanoic acid] |  |  |  |  |  |
|  |  |  |  |  |  | CCCCCCCCCCCCCCCCCC(=O)O [stearic acid] |  |  |  |  | about 4.9 |

| SMILES | Log10K [1, 5] | Log10K [1, 6] | Cfree ([1]; 5% excipient oil) | Cfree ([1]; 15% excipient oil) | ability of the oil to yield stable emulsions [2] | time to begin creaming [2] | log(K) ([1]; oil-water partition coefficient of propofol) | Log10K ([1]; oil-water partition coefficient of propofol, 10% excipient oil) | Cfree ([1]; 10% excipient oil) | partition coefficient of propofol compared to soybean oil [3] | pKa [4] |
| --- | --- | --- | --- | --- | --- | --- | --- | --- | --- | --- | --- |
| CCCC(=O)OCC [Ethyl butyrate (EB), Ethyl butyrate] | 4.33 | 4.35 | 6.93 mg/L | 2.48 mg/L | did not yield stable emulsions |  | 4.3 | 4.32 | 4.60 ± 1.83 mg/L | about 4 fold |  |
